Source: ChEMBL document CHEMBL1143708, “5-alkynyl analogs of arabinouridine and 2'-deoxyuridine: cytostatic activity against herpes simplex virus and varicella-zoster thymidine kinase gene-transfected cells” (J Med Chem, 2007)
≈ marks a conversion by molar mass, not a printed value. Calls of active or inactive are those of the source. The rule behind the calls is not given here.

Experiments:
[1] = system: Human alphaherpesvirus 2; assay: Antiviral activity against HSV2 G in E6SM cells assessed as reduction of virus-induced cytopathogenicity; format: functional, organism-based; conditions: Human alphaherpesvirus 2, G
[2] = system: FM3A; assay: Inhibition of proliferation of thymidine kinase deficient mouse FM3A cells expressing HSV1 thymidine kinase; format: functional, cell-based
[3] = Cytotoxicity against E6SM cells assessed as alteration in cell morphology; format: cell-based; conditions: human
[4] = system: Human alphaherpesvirus 3; assay: Antiviral activity against TK+ VZV YS in HEL cells assessed as reduction of virus plaque formation; format: functional, organism-based; conditions: Human alphaherpesvirus 3, YS
[5] = system: Human alphaherpesvirus 1; assay: Antiviral activity against thymidine kinase-deficient HSV1 B2006 in E6SM cells assessed as reduction of virus-induced cytopathogenicity; format: functional, organism-based; conditions: Human alphaherpesvirus 1, B2006, E6SM
[6] = system: Human alphaherpesvirus 1; assay: Antiviral activity against HSV1 KOS in E6SM cells assessed as reduction of virus-induced cytopathogenicity; format: functional, organism-based; conditions: Human alphaherpesvirus 1, KOS
[7] = system: Human alphaherpesvirus 3; assay: Antiviral activity against TK+ VZV OKA in HEL cells assessed as reduction of virus plaque formation; format: functional, organism-based; conditions: Human alphaherpesvirus 3, OKA
[8] = Inhibition of proliferation of VZV thymidine kinase expressing OSTtk-/VZVtk+ -b cells; format: functional; conditions: Homo sapiens
[9] = system: OST; assay: Inhibition of proliferation of thymidine kinase deficient OST cells; format: functional, cell-based; conditions: Homo sapiens
[10] = system: FM3A; assay: Inhibition of proliferation of thymidine kinase deficient mouse FM3A cells expressing HSV2 thymidine kinase; format: functional, cell-based
[11] = system: Human respirovirus 3; assay: Antiviral activity against Parainfluenza 3 virus in vero cells assessed as reduction of virus-induced cytopathicity at 20 to >400 ug/mL; format: functional, organism-based
[12] = system: Sindbis virus; assay: Antiviral activity against Sindbis virus in vero cells assessed as reduction of virus-induced cytopathicity at 40 to >400 ug/mL; format: functional, organism-based
[13] = system: Human alphaherpesvirus 3; assay: Antiviral activity against thymidine kinase deficient VZV YS in HEL cells assessed as reduction of virus plaque formation; format: functional, organism-based; conditions: Human alphaherpesvirus 3, YS
[14] = system: Human alphaherpesvirus 3; assay: Antiviral activity against thymidine kinase deficient VZV 07/1 in HEL cells assessed as reduction of virus plaque formation; format: functional, organism-based; conditions: Human alphaherpesvirus 3, 07/1, HEL
[15] = system: Punta Toro virus; assay: Antiviral activity against Punta Toro virus in vero cells assessed as reduction of virus-induced cytopathicity at 20 to >400 ug/mL; format: functional, organism-based
[16] = system: Vesicular stomatitis virus; assay: Antiviral activity against VSV in HeLa cells at 40 to >400 ug/mL; format: functional, organism-based
[17] = system: Mammalian orthoreovirus 1; assay: Antiviral activity against Reovirus1 in vero cells assessed as reduction of virus-induced cytopathicity at 40 to >400 ug/mL; format: functional, organism-based
[18] = system: Human betaherpesvirus 5; assay: Antiviral activity against HCMV AD169 in HEL cells assessed as reduction of virus plaque formation; format: functional, organism-based; conditions: Human betaherpesvirus 5, AD169, HEL
[19] = system: FM3A; assay: Inhibition of proliferation of thymidine kinase deficient mouse FM3A cells; format: functional, cell-based
[20] = Inhibition of proliferation of VZV thymidine kinase expressing OSTtk-/VZVtk+ -a cells; format: functional; conditions: Homo sapiens
[21] = system: Coxsackievirus B4; assay: Antiviral activity against Coxsackie virus B4 in HeLa cells at 40 to >400 ug/mL; format: functional, organism-based
[22] = system: Human betaherpesvirus 5; assay: Antiviral activity against HCMV Davis in HEL cells assessed as reduction of virus plaque formation; format: functional, organism-based; conditions: Human betaherpesvirus 5, Davis
[23] = Inhibition of proliferation of mouse FM3A/O cells; format: functional, cell-based
[24] = system: Human alphaherpesvirus 1; assay: Antiviral activity against thymidine kinase deficient HSV1 VMW1837 in E6SM cells assessed as reduction of virus-induced cytopathogenicity; format: functional, organism-based; conditions: Human alphaherpesvirus 1, VMW1837, E6SM
[25] = Cytotoxicity against HEL cells assessed as alteration in cell morphology; format: cell-based; conditions: human
[26] = Cytotoxicity against HEL cells; format: cell-based; conditions: human
[27] = system: Respiratory syncytial virus; assay: Antiviral activity against Respiratory syncytial virus in HeLa cells at 40 to >400 ug/mL; format: functional, organism-based
[28] = system: Mammalian orthoreovirus 1; assay: Antiviral activity against Reovirus1 in vero cells; format: functional, organism-based; conditions: Mammalian orthoreovirus 1, Vero
[29] = system: Punta Toro virus; assay: Antiviral activity against Punta Toro virus in vero cells; format: functional, organism-based
[30] = system: Vesicular stomatitis virus; assay: Antiviral activity against VSV in HeLa cells; format: functional, organism-based
[31] = system: Coxsackievirus B4; assay: Antiviral activity against Coxsackie virus B4 in HeLa cells; format: functional, organism-based; conditions: Enterovirus B
[32] = system: Respiratory syncytial virus; assay: Antiviral activity against Respiratory syncytial virus in HeLa cells; format: functional, organism-based; conditions: human respiratory syncytial virus
[33] = system: Human alphaherpesvirus 3; assay: Antiviral activity against thymidine kinase deficient VZV YS/R in HEL cells assessed as reduction of virus plaque formation; format: functional, organism-based; conditions: Human alphaherpesvirus 3, YS/R

SMILES	EC50 [1]	IC50 [2]	MCC [3]	EC50 [4]	EC50 [5]	EC50 [6]	EC50 [7]	IC50 [8]	IC50 [9]	IC50 [10]	Activity [11]	Activity [12]	EC50 [14]	Activity [15]	EC50 [18]	IC50 [20]	EC50 [22]	EC50 [24]	MCC [25]	CC50 [26]	further results
C#Cc1cn([C@H]2C[C@H](O)[C@@H](CO)O2)c(=O)[nH]c1=O	2 µg/mL (≈ 7.93 µM)	130 nM	> 400 µg/mL	110 nM	0.7 µg/mL (≈ 2.78 µM)	0.7 µg/mL (≈ 2.78 µM)	160 nM	160 nM	23 µM	390 nM	inactive	inactive	810 nM	inactive	1200 nM	83 nM	850 nM	4 µg/mL (≈ 15.9 µM)	> 200 µM	2.5 µM	EC50 [13]: 750 nM; Activity [16]: inactive; Activity [17]: inactive; IC50 [19]: ≥ 250 µM; Activity [21]: inactive; IC50 [23]: 180 nM; Activity [27]: inactive
Nc1ccn(C[C@@H](CO)OCP(=O)(O)O)c(=O)n1 [CIDOFOVIR]	–	–	–	–	–	–	–	–	–	–	–	–	–	–	660 nM	–	660 nM	–	–	121 µM	–
Nc1nc2c(ncn2COCCO)c(=O)[nH]1 [ACYCLOVIR]	0.07 µg/mL (≈ 0.311 µM)	–	> 400 µg/mL	–	40 µg/mL (≈ 178 µM)	0.02 µg/mL (≈ 0.0888 µM)	–	–	–	–	–	–	–	–	–	–	–	7 µg/mL (≈ 31.1 µM)	–	–	–
NC(=O)c1ncn([C@@H]2O[C@H](CO)[C@@H](O)[C@H]2O)n1 [RIBAVIRIN]	150 µg/mL (≈ 614 µM)	–	400 µg/mL	–	20 µg/mL (≈ 81.9 µM)	70 µg/mL (≈ 287 µM)	–	–	–	–	–	–	–	–	–	–	–	70 µg/mL (≈ 287 µM)	–	–	IC50 [28]: 0.7 µg/mL (≈ 2.87 µM); IC50 [29]: 20 µg/mL (≈ 81.9 µM); IC50 [30]: 20 µg/mL (≈ 81.9 µM); IC50 [31]: 20 µg/mL (≈ 81.9 µM); IC50 [32]: 2 µg/mL (≈ 8.19 µM)
O=c1[nH]c(=O)n([C@H]2C[C@H](O)[C@@H](CO)O2)cc1/C=C/Br [BRIVUDINE]	150 µg/mL (≈ 450 µM)	–	≥ 400 µg/mL	–	40 µg/mL (≈ 120 µM)	0.02 µg/mL (≈ 0.06 µM)	–	350 nM	≥ 250 µM	–	–	–	–	–	–	600 nM	–	40 µg/mL (≈ 120 µM)	–	–	–
CC(=O)OC[C@H]1O[C@@H](n2cc(C#CI)c(=O)[nH]c2=O)[C@@H](OC(C)=O)[C@@H]1OC(C)=O	7 µg/mL (≈ 13.5 µM)	5400 nM	40 µg/mL	3100 nM	> 10 µg/mL	20 µg/mL (≈ 38.4 µM)	8500 nM	3900 nM	5.4 µM	960 nM	inactive	inactive	> 20000 nM	inactive	> 20000 nM	3600 nM	> 20000 nM	> 10 µg/mL	50 µM	20 µM	EC50 [13]: > 20000 nM; Activity [16]: inactive; Activity [17]: inactive; IC50 [19]: 20 µM; Activity [21]: inactive; IC50 [23]: 18000 nM; Activity [27]: inactive
C#Cc1cn([C@@H]2O[C@H](CO)[C@@H](O)[C@@H]2O)c(=O)[nH]c1=O	–	–	400 µg/mL	–	–	–	–	–	–	–	–	–	–	–	–	–	–	–	200 µM	–	–
C[Si](C)(C)C#Cc1cn([C@H]2C[C@H](O)[C@@H](CO)O2)c(=O)[nH]c1=O	7 µg/mL (≈ 21.6 µM)	160 nM	> 400 µg/mL	150 nM	4 µg/mL (≈ 12.3 µM)	2 µg/mL (≈ 6.17 µM)	260 nM	200 nM	23 µM	480 nM	inactive	inactive	690 nM	inactive	1200 nM	41 nM	750 nM	7 µg/mL (≈ 21.6 µM)	200 µM	0.18 µM	EC50 [13]: 900 nM; Activity [16]: inactive; Activity [17]: inactive; IC50 [19]: ≥ 250 µM; Activity [21]: inactive; IC50 [23]: 230 nM; Activity [27]: inactive
O=c1[nH]c(=O)n([C@@H]2O[C@H](CO)[C@@H](O)C2O)cc1/C=C/Br (single isomer, unassigned) [SORIVUDINE]	–	–	–	–	–	–	–	200 nM	≥ 250 µM	–	–	–	–	–	–	150 nM	–	–	–	–	–
C[Si](C)(C)C#Cc1cn([C@@H]2O[C@H](CO)[C@@H](O)[C@@H]2O)c(=O)[nH]c1=O	2 µg/mL (≈ 5.88 µM)	3800 nM	400 µg/mL	330 nM	150 µg/mL (≈ 441 µM)	0.7 µg/mL (≈ 2.06 µM)	480 nM	1900 nM	≥ 176 µM	290 nM	inactive	inactive	> 50000 nM	inactive	> 50000 nM	750 nM	> 50000 nM	150 µg/mL (≈ 441 µM)	200 µM	127 µM	Activity [16]: inactive; Activity [17]: inactive; IC50 [19]: ≥ 250 µM; EC50 [33]: > 50 µM; Activity [21]: inactive; IC50 [23]: ≥ 250000 nM; Activity [27]: inactive
Nc1nc2c(ncn2COC(CO)CO)c(=O)[nH]1 [GANCICLOVIR]	0.007 µg/mL (≈ 0.0274 µM)	–	> 100 µg/mL	–	0.7 µg/mL (≈ 2.74 µM)	0.002 µg/mL (≈ 0.00784 µM)	–	–	–	–	–	–	–	–	6300 nM	–	–	0.02 µg/mL (≈ 0.0784 µM)	> 200 µM	–	–
O=c1[nH]c(=O)n([C@H]2C[C@H](O)[C@@H](CO)O2)cc1C#CI	7 µg/mL (≈ 18.5 µM)	160 nM	≥ 100 µg/mL	110 nM	2 µg/mL (≈ 5.29 µM)	2 µg/mL (≈ 5.29 µM)	180 nM	120 nM	34 µM	350 nM	inactive	inactive	890 nM	inactive	2500 nM	63 nM	580 nM	7 µg/mL (≈ 18.5 µM)	200 µM	0.76 µM	EC50 [13]: 780 nM; Activity [16]: inactive; Activity [17]: inactive; IC50 [19]: 87 µM; Activity [21]: inactive; IC50 [23]: 300 nM; Activity [27]: inactive
